Measurements published in the supplement of paper PMC10307832.

Tests used:
Test in all cases: relative viability (nuclei count vs DMSO), 5 days (fraction); higher = more cells survive
[1] = compound: C1=CC2=C(C=CC(=C2)C=C3C(=O)NC(=NCC4=CC=CS4)S3)N=C1 [RO-3306] + O=C(CCCCCCC(=O)Nc1ccccc1)NO [Vorinostat] (partner 1 µM)
Outline: (§1)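 The day after seeding in 1536-well plates, lung cancer cell lines were treated by pin tool with a single drug, or with a fixed anchor-drug dose together with five library-drug doses (not always all listed) in √10 steps. After 5 days, a combined fix-and-stain solution (final 0.05% Triton X-100, 1% formaldehyde, 1 ug/ml Hoechst) was added. Nuclei counted on 4× images gave relative viability as treated counts over vehicle counts, reported as the median of duplicate plates.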

[2] = compound: C1=CC2=C(C=CC(=C2)C=C3C(=O)NC(=NCC4=CC=CS4)S3)N=C1 [RO-3306] + COc1cccc2cc(-c3nc([C@H]4CC[C@H](C(=O)O)CC4)n4ncnc(N)c34)[nH]c12 [OSI-027] (partner 0.5 µM)
Outline: as §1

[3] = compound: O=S(=O)(c1ccccc1)N(CC(F)(F)F)c1ccc(C(O)(C(F)(F)F)C(F)(F)F)cc1 + CS(=O)(=O)N1CCN(Cc2cc3nc(-c4cccc5[nH]ncc45)nc(N4CCOCC4)c3s2)CC1 [Pictilisib] (partner 1 µM)
Outline: as §1

[4] = compound: O=S(=O)(c1ccccc1)N(CC(F)(F)F)c1ccc(C(O)(C(F)(F)F)C(F)(F)F)cc1 + O=C(c1cc(Cc2n[nH]c(=O)c3ccccc23)ccc1F)N1CCN(C(=O)C2CC2)CC1 [Olaparib] (partner 8 µM)
Outline: as §1

[5] = compound: O=S(=O)(c1ccccc1)N(CC(F)(F)F)c1ccc(C(O)(C(F)(F)F)C(F)(F)F)cc1 + COc1cc2c(Oc3ccc(NC(=O)C4(C(=O)Nc5ccc(F)cc5)CC4)cc3F)ccnc2cc1OCCCN1CCOCC1 [Foretinib] (partner 0.25 µM)
Outline: as §1

| Cell Line | relative viability ([1]; first compound 0.01 µM) | relative viability ([1]; first compound 0.03162 µM) | relative viability ([1]; first compound 0.1 µM) | relative viability ([1]; first compound 0.3162 µM) | relative viability ([1]; first compound 1 µM) | relative viability ([2]; first compound 0.01 µM) | relative viability ([2]; first compound 0.1 µM) | relative viability ([2]; first compound 0.3162 µM) | relative viability ([2]; first compound 1 µM) | relative viability ([3]; first compound 0.8 µM) | relative viability ([3]; first compound 2.53 µM) | relative viability ([3]; first compound 8 µM) | relative viability ([4]; first compound 0.8 µM) | relative viability ([4]; first compound 2.53 µM) | relative viability ([4]; first compound 8 µM) | relative viability ([5]; first compound 0.8 µM) | relative viability ([5]; first compound 2.53 µM) | relative viability ([5]; first compound 8 µM) | relative viability ([2]; first compound 0.03162 µM) |
| --- | --- | --- | --- | --- | --- | --- | --- | --- | --- | --- | --- | --- | --- | --- | --- | --- | --- | --- | --- |
| NCI-H1355 | 0.694 | 0.538 | 0.644 | 0.6 | 0.591 | 0.379 | 0.378 | 0.375 | 0.337 | 0.415 | 0.389 | 0.491 | 0.824 | 0.737 | 0.719 | 1.06 | 0.978 | 1.01 | – |
| NCI-H1395 | 0.738 | 0.649 | 0.579 | 0.689 | 0.629 | 0.598 | 0.502 | 0.618 | 0.612 | 0.569 | 0.562 | 0.635 | 0.409 | 0.458 | 0.467 | 0.924 | 0.862 | 0.994 | 0.674 |
| NCI-H1437 | 0.848 | 0.782 | 0.807 | 0.751 | 0.688 | 0.936 | 0.825 | 0.912 | 0.878 | 0.374 | 0.327 | 0.412 | 0.598 | 0.591 | 0.597 | 1.35 | 1.09 | 0.979 | 0.814 |
| NCI-H1650 | 0.648 | 0.545 | 0.472 | 0.558 | 0.613 | 0.715 | 0.516 | 0.637 | 0.587 | 0.69 | 0.588 | 0.534 | 0.792 | 0.678 | 0.743 | 1.33 | 0.904 | 1.28 | 0.409 |
